In patent US10479784B2, “Substituted pyrazin-2-amines as inhibitors of ATR kinase” (Vertex Pharmaceuticals Incorporated, priority 2008, dated 2019):

What follows are molecules tested against full-length ATR (Homo sapiens (Human), UniProt Q13535) (assay: ATR Inhibition Assay (radioactive-phosphate incorporation)). Conditions: read-out: ATR Ki.
Type: biochemical
Procedure: Compounds were screened for their ability to inhibit ATR kinase using a radioactive-phosphate incorporation assay. Assays were carried out in a mixture of 50 mM Tris/HCl (pH 7.5), 10 mM MgCl2 and 1 mM DTT. Final substrate concentrations were […] [γ-33P]ATP (3mCi 33P ATP/mmol ATP, Perkin Elmer) and 800 μM target peptide ([…]).
Assays were carried out at 25° C. in the presence of 5 nM full-length ATR. An assay stock buffer solution was prepared containing all of the reagents listed above, with the exception of ATP and the test compound of interest. […] The plate was pre-incubated for 10 minutes at 25° C. and the reaction initiated by addition of 15 μL [γ-33P]ATP (final concentration 10 μM).
The reaction was stopped after […] by the addition of 30 μL 0.1M phosphoric acid containing 2 mM ATP. A multiscreen phosphocellulose filter 96-well plate (Millipore, Cat no. MAPHN0B50) was pretreated with 100 μL 0.2M phosphoric acid prior to the addition of 45 μL of the stopped assay mixture. […] After drying, 100 μL Optiphase ‘SuperMix’ liquid scintillation cocktail (Perkin Elmer) was added to the well prior to scintillation counting (1450 Microbeta Liquid Scintillation Counter, Wallac).
After removing mean background values for all of the data points, Ki(app) data were calculated from non-linear regression analysis of the initial rate data using the Prism software package (GraphPad Prism version 3.0cx for Macintosh, GraphPad Software, San Diego Calif., USA).

full-length ATR, sequence (Q13535 whole entry): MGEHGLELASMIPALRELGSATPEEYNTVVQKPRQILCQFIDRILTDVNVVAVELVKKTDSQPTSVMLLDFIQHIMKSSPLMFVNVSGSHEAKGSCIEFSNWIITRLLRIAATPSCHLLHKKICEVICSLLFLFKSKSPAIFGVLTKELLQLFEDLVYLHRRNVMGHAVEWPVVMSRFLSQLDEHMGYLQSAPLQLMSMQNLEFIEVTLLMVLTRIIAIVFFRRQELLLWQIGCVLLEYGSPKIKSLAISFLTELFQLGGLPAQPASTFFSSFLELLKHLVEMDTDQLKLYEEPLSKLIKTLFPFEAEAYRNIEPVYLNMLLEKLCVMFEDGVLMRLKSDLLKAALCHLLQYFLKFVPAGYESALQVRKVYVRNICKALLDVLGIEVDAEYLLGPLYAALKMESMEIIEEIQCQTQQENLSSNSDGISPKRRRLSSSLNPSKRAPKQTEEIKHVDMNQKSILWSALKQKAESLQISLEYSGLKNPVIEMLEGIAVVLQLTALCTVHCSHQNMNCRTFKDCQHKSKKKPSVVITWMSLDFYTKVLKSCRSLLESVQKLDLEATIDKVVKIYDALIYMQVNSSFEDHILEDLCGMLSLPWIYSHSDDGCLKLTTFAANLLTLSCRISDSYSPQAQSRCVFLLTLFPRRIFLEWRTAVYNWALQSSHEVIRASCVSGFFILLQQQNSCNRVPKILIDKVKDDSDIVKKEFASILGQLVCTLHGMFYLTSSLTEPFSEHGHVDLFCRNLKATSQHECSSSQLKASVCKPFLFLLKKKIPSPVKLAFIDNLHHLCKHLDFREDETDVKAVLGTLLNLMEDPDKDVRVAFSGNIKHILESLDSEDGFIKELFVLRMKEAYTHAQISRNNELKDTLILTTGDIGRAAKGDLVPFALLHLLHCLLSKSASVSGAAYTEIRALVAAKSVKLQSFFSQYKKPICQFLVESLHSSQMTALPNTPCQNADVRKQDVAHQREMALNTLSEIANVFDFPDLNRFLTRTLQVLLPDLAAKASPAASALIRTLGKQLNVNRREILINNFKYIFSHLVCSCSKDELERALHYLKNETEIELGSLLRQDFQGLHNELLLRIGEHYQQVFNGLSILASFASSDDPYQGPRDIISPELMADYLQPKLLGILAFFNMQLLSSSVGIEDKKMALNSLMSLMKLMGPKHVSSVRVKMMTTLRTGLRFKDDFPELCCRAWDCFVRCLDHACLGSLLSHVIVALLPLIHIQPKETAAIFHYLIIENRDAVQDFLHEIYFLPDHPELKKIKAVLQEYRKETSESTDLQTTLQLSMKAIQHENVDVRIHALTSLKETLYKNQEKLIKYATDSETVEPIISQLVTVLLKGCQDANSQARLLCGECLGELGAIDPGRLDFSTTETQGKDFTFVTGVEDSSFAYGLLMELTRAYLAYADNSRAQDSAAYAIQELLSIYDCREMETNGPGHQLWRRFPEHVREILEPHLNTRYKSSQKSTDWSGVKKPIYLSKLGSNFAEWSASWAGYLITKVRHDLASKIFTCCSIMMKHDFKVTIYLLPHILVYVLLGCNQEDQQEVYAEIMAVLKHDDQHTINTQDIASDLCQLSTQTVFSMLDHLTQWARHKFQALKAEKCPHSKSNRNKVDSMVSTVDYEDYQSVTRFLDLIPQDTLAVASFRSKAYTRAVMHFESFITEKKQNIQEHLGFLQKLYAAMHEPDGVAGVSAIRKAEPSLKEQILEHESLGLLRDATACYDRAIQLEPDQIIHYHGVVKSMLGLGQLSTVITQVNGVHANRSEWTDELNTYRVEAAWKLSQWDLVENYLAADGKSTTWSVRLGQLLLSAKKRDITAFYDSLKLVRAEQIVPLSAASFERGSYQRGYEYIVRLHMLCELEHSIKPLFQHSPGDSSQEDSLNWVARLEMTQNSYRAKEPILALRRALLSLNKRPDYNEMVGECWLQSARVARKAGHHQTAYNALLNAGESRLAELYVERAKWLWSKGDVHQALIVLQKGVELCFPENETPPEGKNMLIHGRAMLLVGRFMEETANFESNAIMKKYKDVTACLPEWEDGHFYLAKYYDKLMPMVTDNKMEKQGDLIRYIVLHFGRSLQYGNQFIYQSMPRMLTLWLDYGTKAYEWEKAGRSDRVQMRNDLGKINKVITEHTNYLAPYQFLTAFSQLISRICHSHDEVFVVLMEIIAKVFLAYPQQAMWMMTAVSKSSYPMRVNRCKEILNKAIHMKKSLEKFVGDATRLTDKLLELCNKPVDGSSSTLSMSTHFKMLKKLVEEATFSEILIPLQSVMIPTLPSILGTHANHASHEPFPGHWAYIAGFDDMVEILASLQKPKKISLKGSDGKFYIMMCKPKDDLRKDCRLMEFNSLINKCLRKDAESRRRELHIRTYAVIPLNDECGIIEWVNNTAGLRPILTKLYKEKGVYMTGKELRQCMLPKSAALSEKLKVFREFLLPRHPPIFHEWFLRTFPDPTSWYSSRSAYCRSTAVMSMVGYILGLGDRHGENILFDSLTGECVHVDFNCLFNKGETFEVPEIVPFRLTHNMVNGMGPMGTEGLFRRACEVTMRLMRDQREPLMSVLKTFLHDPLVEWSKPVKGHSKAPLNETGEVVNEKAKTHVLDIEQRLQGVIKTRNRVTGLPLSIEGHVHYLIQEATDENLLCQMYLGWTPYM

| Structure (SMILES) | Ki [nM] |
| --- | --- |
| COCCN(C)C(=O)c1ccc(-c2cnc(N)c(C(=O)Nc3ccccc3)n2)cc1 [Compound I-45, 3-amino-6-(4-((2-methoxyethyl)(methyl)carbamoyl)phenyl)-N-phenylpyrazine-2-carboxamide] | 10 to 100 |
| Nc1ncc(-c2ccc(C(=O)NCCN3CCCC3)cc2)nc1C(=O)Nc1ccccc1 [Compound I-46, 3-amino-N-phenyl-6-(4-(2-(pyrrolidin-1-yl)ethylcarbamoyl)phenyl) pyrazine-2-carboxamide] | 100 to 5000 |
| Nc1ncc(-c2ccc(C(=O)NC3CCOCC3)cc2)nc1C(=O)Nc1ccccc1 [Compound I-47, 3-amino-N-phenyl-6-(4-(tetrahydro-2H-pyran-4-ylcarbamoyl)phenyl)pyrazine-2-carboxamide] | 10 to 100 |
| CN1CCC(NC(=O)c2cccc(-c3cnc(N)c(C(=O)Nc4ccccc4)n3)c2)CC1 [Compound I-48, 3-amino-6-(3-(1-methylpiperidin-4-ylcarbamoyl)phenyl)-N-phenylpyrazine-2-carboxamide] | 100 to 5000 |
| Nc1ncc(-c2ccc(C(=O)NCCN3CCCCC3)cc2)nc1C(=O)Nc1ccccc1 [Compound I-49, 3-amino-N-phenyl-6-(4-(2-(piperidin-1-yl)ethylcarbamoyl)phenyl) pyrazine-2-carboxamide] | 100 to 5000 |
| Nc1ncc(-c2cccc(C(=O)N3CCC(CO)CC3)c2)nc1C(=O)Nc1ccccc1 [Compound I-50, 3-amino-6-(3-(4-(hydroxymethyl)piperidine-1-carbonyl)phenyl)-N-phenylpyrazine-2-carboxamide] | 100 to 5000 |
| Nc1ncc(-c2ccc(C(=O)NC3CC3)cc2)nc1C(=O)Nc1ccccc1 [Compound I-51, 3-amino-6-(4-(cyclopropylcarbamoyl)phenyl)-N-phenylpyrazine-2-carboxamide] | 10 to 100 |
| CN(C)CCN(C)C(=O)c1cccc(-c2cnc(N)c(C(=O)Nc3ccccc3)n2)c1 [Compound I-52, 3-amino-6-(3-((2-(dimethylamino)ethyl)(methyl)carbamoyl)phenyl)-N-phenylpyrazine-2-carboxamide] | 100 to 5000 |
| Nc1ncc(-c2cccc(C(=O)N3CCNCC3)c2)nc1C(=O)Nc1ccccc1 [Compound I-53, 3-amino-N-phenyl-6-(3-(piperazine-1-carbonyl)phenyl) pyrazine-2-carboxamide] | 100 to 5000 |
| Nc1ncc(-c2cccc(C(=O)NCCN3CCCC3)c2)nc1C(=O)Nc1ccccc1 [Compound I-54, 3-amino-N-phenyl-6-(3-(2-(pyrrolidin-1-yl)ethylcarbamoyl)phenyl)pyrazine-2-carboxamide] | 100 to 5000 |
| Nc1ncc(-c2cccc(C(=O)N3CCC(N4CCCC4)CC3)c2)nc1C(=O)Nc1ccccc1 [Compound I-56, 3-amino-N-phenyl-6-(3-(4-(pyrrolidin-1-yl)piperidine-1-carbonyl)phenyl)pyrazine-2-carboxamide] | 100 to 5000 |
| N#CCCN1CCN(C(=O)c2cccc(-c3cnc(N)c(C(=O)Nc4ccccc4)n3)c2)CC1 [Compound I-58, 3-amino-6-(3-(4-(2-cyanoethyl)piperazine-1-carbonyl)phenyl)-N-phenylpyrazine-2-carboxamide] | 100 to 5000 |
| CN1CCN(C(=O)c2cccc(-c3cnc(N)c(C(=O)Nc4ccccc4)n3)c2)CC1 [Compound I-59, 3-amino-6-(3-(4-methylpiperazine-1-carbonyl)phenyl)-N-phenylpyrazine-2-carboxamide] | 100 to 5000 |
| COC1CN(C(=O)c2cccc(-c3cnc(N)c(C(=O)Nc4ccccc4)n3)c2)C1 [Compound I-60, 3-amino-6-(3-(3-methoxyazetidine-1-carbonyl)phenyl)-N-phenylpyrazine-2-carboxamide] | 100 to 5000 |
| Nc1ncc(-c2cccc(C(=O)NCCN3CCCCC3)c2)nc1C(=O)Nc1ccccc1 [Compound I-61, 3-amino-N-phenyl-6-(3-(2-(piperidin-1-yl)ethylcarbamoyl)phenyl) pyrazine-2-carboxamide] | 100 to 5000 |

Second part, the molecule after the results:

| Ki [nM] | Structure (SMILES) |
| --- | --- |
| 100 to 5000 | NC(=O)C1CCN(C(=O)c2cccc(-c3cnc(N)c(C(=O)Nc4ccccc4)n3)c2)CC1 [Compound I-62, 3-amino-6-(3-(4-carbamoylpiperidine-1-carbonyl)phenyl)-N-phenylpyrazine-2-carboxamide] |
| 100 to 5000 | Nc1ncc(-c2cccc(C(=O)N3CCCC3)c2)nc1C(=O)Nc1ccccc1 [Compound I-63, 3-amino-N-phenyl-6-(3-(pyrrolidine-1-carbonyl)phenyl)pyrazine-2-carboxamide] |
| 100 to 5000 | CN1CCC(NC(=O)c2ccc(-c3cnc(N)c(C(=O)Nc4ccccc4)n3)cc2)CC1 [Compound I-64, 3-amino-6-(4-(1-methylpiperidin-4-ylcarbamoyl)phenyl)-N-phenylpyrazine-2-carboxamide] |
| 100 to 5000 | Nc1ncc(-c2cccc(C(=O)N3CCC(O)C3)c2)nc1C(=O)Nc1ccccc1 (stereo not shown) [Compound I-65, 3-amino-6-(3-(3-hydroxypyrrolidine-1-carbonyl)phenyl)-N-phenylpyrazine-2-carboxamide] |
| 10 to 100 | Nc1ncc(-c2cccc(C(=O)NC3CCOCC3)c2)nc1C(=O)Nc1ccccc1 [Compound I-66, 3-amino-N-phenyl-6-(3-(tetrahydro-2H-pyran-4-ylcarbamoyl)phenyl) pyrazine-2-carboxamide] |
| 10 to 100 | COCCN(C)C(=O)c1cccc(-c2cnc(N)c(C(=O)Nc3ccccc3)n2)c1 [Compound I-67, 3-amino-6-(3-((2-methoxyethyl)(methyl)carbamoyl)phenyl)-N-phenylpyrazine-2-carboxamide] |
| 10 to 100 | CN(C)CCN(C)C(=O)c1ccc(-c2cnc(N)c(C(=O)Nc3ccccc3)n2)cc1 [Compound I-68, 3-amino-6-(4-((2-(dimethylamino)ethyl)(methyl)carbamoyl)phenyl)-N-phenylpyrazine-2-carboxamide] |
| 100 to 5000 | Nc1ncc(-c2ccc(C(=O)NCC3CCOCC3)cc2)nc1C(=O)Nc1ccccc1 [Compound I-69, 3-amino-N-phenyl-6-(4-((tetrahydro-2H-pyran-4-yl)methylcarbamoyl)phenyl)pyrazine-2-carboxamide] |
| 10 to 100 | Nc1ncc(-c2ccc(C(=O)N3CCCC3)cc2)nc1C(=O)Nc1ccccc1 [Compound I-70, 3-amino-N-phenyl-6-(4-(pyrrolidine-1-carbonyl)phenyl)pyrazine-2-carboxamide] |
| 10 to 100 | Nc1ncc(-c2ccc(C(=O)N3CCC(N4CCCC4)CC3)cc2)nc1C(=O)Nc1ccccc1 [Compound I-71, 3-amino-N-phenyl-6-(4-(4-(pyrrolidin-1-yl)piperidine-1-carbonyl)phenyl) pyrazine-2-carboxamide] |
| 10 to 100 | Nc1ncc(-c2ccc(C(=O)N3CCC3)cc2)nc1C(=O)Nc1ccccc1 [Compound I-72, 3-amino-6-(4-(azetidine-1-carbonyl)phenyl)-N-phenylpyrazine-2-carboxamide] |
| 10 to 100 | CN1CCN(C(=O)c2ccc(-c3cnc(N)c(C(=O)Nc4ccccc4)n3)cc2)CC1 [Compound I-73, 3-amino-6-(4-(4-methylpiperazine-1-carbonyl)phenyl)-N-phenylpyrazine-2-carboxamide] |
| 10 to 100 | Nc1ncc(-c2ccc(C(=O)N3CCNCC3)cc2)nc1C(=O)Nc1ccccc1 [Compound I-74, 3-amino-N-phenyl-6-(4-(piperazine-1-carbonyl)phenyl)pyrazine-2-carboxamide] |
